Results taken from patent US20070172957A1, “Methods of identifying anti-inflammatory macrolides” (TAISHO PHARMACEUTICAL CO., LTD., priority 2004, published 2007).

Tested on: genes predictive for the anti-inflammatory macrolide effect
Assay: Genes statistically predictive of Clari response: differentially expressed with Clari but not the inactive macrolides MAA or Josa (Appendix E)
Type: cell-based
From the text: In the case of the above-mentioned (i) related to arachidonic acid biosynthesis, specifically, methods of the embodiment involve assaying whether a test macrolide alters biosynthesis of arachidonic acid, alters the expression or activities of enzymes involved in the biosynthesis or activation of arachidonic acid (e.g., arachidonic acid CoA synthetase, delta-6 desaturase, fatty acid elongase, and delta-5 desaturase, AA-related genes in Tables 2 and 3), or alters the expression of genes identified as predictive for the anti-inflammatory macrolide effect (Appendix E). Assays in which arachidonic acid or gene expression or enzymatic activity is detected can be carried out after contacting a cell with a test macrolide. Any cell line that secretes prostaglandin or produces arachidonic acid can be used. Epithelial and macrophages lines (e.g., A549 or THP-1) are suitable for this purpose; other cell lines can be identified by carrying out assays such as those described in the specific Examples, below. Alternatively, screening assays can be carried out after adding a test macrolide to an in vitro cell system (e.g., a cellular extract or liver microsome preparation) or an in vitro enzyme assay system.

CO[C@@H]1[C@@H](O[C@@H]2O[C@H](C)[C@@H](O[C@H]3C[C@@](C)(O)[C@@H](OC(=O)CC(C)C)[C@H](C)O3)[C@H](N(C)C)[C@H]2O)[C@@H](CC=O)C[C@@H](C)[C@@H](O)/C=C/C=C/C[C@@H](C)OC(=O)C[C@H]1OC(C)=O [josamycin]
0.94: mean group, SRF (SpotID 48026, pooled group mean)
1.08: group mean, gene ZAP3 (SpotID 48160, MAA and Josa vs. Clari) | mean group, ZAP3 (SpotID 48160, pooled group mean)
0.90: group mean, gene SCN1B (SpotID 48121, MAA and Josa vs. Clari) | group mean, gene ARHC (SpotID 48280, MAA and Josa vs. Clari)
1.05: group mean, gene COX15 (SpotID 47951, MAA and Josa vs. Clari) | group mean, gene RPL13A (SpotID 48500, MAA and Josa vs. Clari) | mean group, RPL13A (SpotID 48500, pooled group mean) | mean group, FECH (SpotID 48654, pooled group mean)
0.96: group mean, gene DNASE1L1 (SpotID 47950, MAA and Josa vs. Clari) | mean group, DNASE1L1 (SpotID 47950, pooled group mean) | mean group, USF2 (SpotID 47973, pooled group mean) | group mean, gene MKNK2 (SpotID 48713, MAA and Josa vs. Clari)
1.21: mean group, SpotID 48486 (SpotID 48486 (gene symbol not given), pooled group mean)
1.07: group mean, gene BCKDK (SpotID 47949, MAA and Josa vs. Clari)
1.01: group mean, gene KIAA0323 (SpotID 48644, MAA and Josa vs. Clari) | group mean, gene KIAA0217 (SpotID 48804, MAA and Josa vs. Clari) | mean group, KIAA0217 (SpotID 48804, pooled group mean)
0.93: mean group, RPN2 (SpotID 47988, pooled group mean) | group mean, gene CTSH (SpotID 48000, MAA and Josa vs. Clari) | group mean, gene GRB2 (SpotID 48266, MAA and Josa vs. Clari) | mean group, GRB2 (SpotID 48266, pooled group mean) | group mean, gene GCN5L1 (SpotID 48301, MAA and Josa vs. Clari) | mean group, GCN5L1 (SpotID 48301, pooled group mean)
0.88: group mean, gene MAPK12 (SpotID 48233, MAA and Josa vs. Clari) | mean group, MAPK12 (SpotID 48233, pooled group mean)
0.87: group mean, gene CHK (SpotID 48672, MAA and Josa vs. Clari)
0.86: group mean, gene BCL2L2 (SpotID 48006, MAA and Josa vs. Clari)
1.22: mean group, CUTL1 (SpotID 48004, pooled group mean)
0.98: group mean, gene SFRS7 (SpotID 48149, MAA and Josa vs. Clari) | mean group, SFRS7 (SpotID 48149, pooled group mean) | mean group, BARD1 (SpotID 48461, pooled group mean) | mean group, XBP1 (SpotID 48620, pooled group mean) | mean group, RALA (SpotID 48732, pooled group mean)
1.03: mean group, FRDA (SpotID 48137, pooled group mean) | group mean, gene CNOT2 (SpotID 48363, MAA and Josa vs. Clari) | group mean, gene USP24 (SpotID 48508, MAA and Josa vs. Clari)
1.06: group mean, gene RBM3 (SpotID 48471, MAA and Josa vs. Clari)
0.97: group mean, gene DNMT1 (SpotID 48333, MAA and Josa vs. Clari) | mean group, CCT3 (SpotID 48345, pooled group mean) | group mean, gene MGEA5 (SpotID 48411, MAA and Josa vs. Clari) | mean group, MGEA5 (SpotID 48411, pooled group mean) | group mean, gene M6PR (SpotID 48451, MAA and Josa vs. Clari) | group mean, gene MCM5 (SpotID 48470, MAA and Josa vs. Clari) | mean group, NFE2L1 (SpotID 48557, pooled group mean) | group mean, gene SDCBP (SpotID 48646, MAA and Josa vs. Clari) | mean group, SDCBP (SpotID 48646, pooled group mean) | group mean, gene SIGIRR (SpotID 48705, MAA and Josa vs. Clari) | group mean, gene P4HA1 (SpotID 48707, MAA and Josa vs. Clari) | mean group, P4HA1 (SpotID 48707, pooled group mean)
1.02: group mean, gene THBS1 (SpotID 47987, MAA and Josa vs. Clari) | mean group, THBS1 (SpotID 47987, pooled group mean) | group mean, gene OPA1 (SpotID 48192, MAA and Josa vs. Clari) | group mean, gene BAT8 (SpotID 48214, MAA and Josa vs. Clari) | group mean, gene DAXX (SpotID 48235, MAA and Josa vs. Clari) | group mean, gene SERPINB1 (SpotID 48415, MAA and Josa vs. Clari) | mean group, SERPINB1 (SpotID 48415, pooled group mean)
1.04: group mean, gene MAPK9 (SpotID 48365, MAA and Josa vs. Clari) | mean group, MAPK9 (SpotID 48365, pooled group mean) | group mean, gene CNOT2 (SpotID 48396, MAA and Josa vs. Clari) | group mean, gene HSPBP1 (SpotID 48693, MAA and Josa vs. Clari) | mean group, HSPBP1 (SpotID 48693, pooled group mean)
0.95: group mean, gene APLP2 (SpotID 48530, MAA and Josa vs. Clari) | mean group, APLP2 (SpotID 48530, pooled group mean)
0.84: group mean, gene IKKE (SpotID 48725, MAA and Josa vs. Clari) | mean group, IKKE (SpotID 48725, pooled group mean)
1.14: mean group, MAFB (SpotID 48747, pooled group mean)
1.09: group mean, gene HIF1A (SpotID 48397, MAA and Josa vs. Clari) | mean group, PPP3CB (SpotID 48717, pooled group mean)
1.00: group mean, gene PTGER1 (SpotID 47995, MAA and Josa vs. Clari) | group mean, gene SNAPC1 (SpotID 48182, MAA and Josa vs. Clari) | group mean, gene FN1 (SpotID 48328, MAA and Josa vs. Clari) | group mean, gene FN1 (SpotID 48348, MAA and Josa vs. Clari) | group mean, gene DIP2 (SpotID 48643, MAA and Josa vs. Clari)
1.12: group mean, gene DDC (SpotID 48456, MAA and Josa vs. Clari) | mean group, DDC (SpotID 48456, pooled group mean) | group mean, gene ARAF1 (SpotID 48521, MAA and Josa vs. Clari) | mean group, ARAF1 (SpotID 48521, pooled group mean)
